Patent publication US20110066238A1, “RECONSTRUCTED CORNEA AND MUCOUS MEMBRANE” (BASF BEUTY CARE SOLUTIONS FRANCE S.A.S, priority 2008, published 2011)

How the values were obtained:
Type in all cases: cell-based
[1] = system: reconstructed human hemi-corneas; assay: Histological study of reconstructed human hemi-corneas treated with SDS; details: 10 minutes, complete immersion; 0.5%, 1%, 2%, 3% SDS tested
Procedure: A cell suspension preferentially containing 2×10^5 corneal epithelial cells/500 μl of culture medium is seeded on the surface of the reconstructed human corneal stroma. The culture medium used is preferentially composed of DMEM/HAM F12 (2/1), 10% foetal calf serum (FCS), EGF (10 ng/ml), insulin (5 μg/ml), adenine (0.18 mM), hydrocortisone (0.4 μg/ml), cholera toxin (0.1 nM), triiodothyronine (2 nM), glutamine (4 mM), ascorbic acid (1 mM), penicillin G (100 IU/ml), gentamicin (20 μg/ml) and amphotericin B (1 μg/ml). The corneal epithelial cells are cultured by immersion for 7 days on the equivalent corneal stroma and with the medium described above.
The cultures are then raised to the air/liquid interface and then cultured for a further 14 days with a culture medium preferentially composed of DMEM, hydrocortisone (0.4 μg/ml), insulin (5 μg/ml), ascorbic acid (1 mM), penicillin G (100 IU/ml), gentamicin (20 μg/ml) and amphotericin B (1 μg/ml).
The reconstructed human hemi-corneas are treated for 10 minutes by complete immersion, with increasing solutions of SDS (0.5%, 1%, 2% and 3%). After the treatment, the reconstructed human hemi-corneas are rinsed with culture medium, for example DMEM, and then fixed, for example with formaldehyde, and then included in paraffin. […]

[2] = system: reconstructed human hemi-corneas; assay: Cell viability (MTT) of reconstructed human hemi-corneas treated with SDS; details: beyond 0.5% SDS, 10 minutes immersion
IL-6 = assay: Secretion of IL-6 by reconstructed human hemi-corneas treated with SDS (membrane ARRAY); details: culture supernatant after at least 24 hours of reculture following SDS treatment; irritant effect without cell mortality
Procedure: (§1) After treating with SDS, the reconstructed human hemi-corneas are rinsed with culture medium, for example, DMEM, and then recultured for at least a further 24 hours in the culture medium described for the preparation of the reconstructed human hemi-corneas (Example 5).
The culture supernatants of the reconstructed human hemi-corneas are then recovered in order to assay the secreted pro-inflammatory cytokines. The culture supernatants optionally may be frozen before use.
The inventors evaluated the secretion of IL-6, for example by means of a “membrane ARRAY” method as a function of the cell viability previously studied in Example 6.

[3] = system: reconstructed human hemi-corneas; assay: Cellular recovery of reconstructed human hemi-corneas treated with SDS, histological analysis
Procedure: The reconstructed human hemi-corneas are treated for 10 minutes by complete immersion, with increasing solutions of SDS (0.5%, 1%, 2% and 3%). After the treatment, the reconstructed human hemi-corneas are rinsed with culture medium, for example DMEM, and then fixed, for example with formaldehyde, and then included in paraffin. Paraffin slices are then prepared by microtome, preferentially at a thickness of 5 μm, and then stained, for example, with haematoxylin, phloxin and saffron. […] At and above 0.5% SDS, a histological effect on the reconstructed human hemi-corneas is observed.
as §1, with “treatment” for “treating”, “5). The histological studies are performed as described in Example 5.” for “5).”

[4] = system: reconstructed human hemi-corneas; assay: Cellular recovery of reconstructed human hemi-corneas treated with SDS, cell viability
Procedure: After culturing for 7, 14 or 28 days, the reconstructed human corneal stromas are analysed in the following manner: • the cultures are incubated for 2 hours at 37° C. in 2 ml of MTT (methyl thiazolyl tetrazolium) at 1 mg/ml. The negative control corresponds to the biomaterial not containing keratocytes; • the cultures are then recovered, and then incubated in 4 ml of DMSO (dimethyl sulfoxide) for 4 hours with stirring; • a fraction of the culture supernatant (200 μl) of each sample is recovered and then analysed by spectrophotocolorimetry (550 nm). The optical density read is directly proportional to the number of living cells. The biomaterial that has a porosity of between 40 and 50 μm is suitable for the proliferation of keratocytes. Indeed, the cellular proliferation kinetics of the keratocytes is proportional to the culturing time of the reconstructed human corneal stromas. Furthermore, irrespective of the conditions of manufacture of our biomaterial [1.6%, 1.4% and 1.25% dry matter], as described in Example 2, the keratocytes have a similar degree of proliferation.
After treatment with SDS, the reconstructed human hemi-corneas are rinsed with culture medium, for example, DMEM, and then recultured for at least a further 24 hours in the culture medium described for the preparation of the reconstructed human hemi-corneas (Example 5). […]

Structure (SMILES): CCCCCCCCCCCCOS(=O)(=O)[O-].[Na+] [SDS, sodium dodecyl sulfate]
- SDS concentration at which a histological effect is observed [1]: ≥ 0.5%
- cell viability [2]: less than 75%
- secretion of IL-6 (IL-6): strong secretion of IL-6
- epithelial organization after cellular recovery (histology) ([3]; 0.5% and 1% SDS, after 48 hours of cellular recovery): epithelial organization close to that of untreated hemi-corneas
- epithelial organization after cellular recovery (histology) ([3]; 2% and 3% SDS, after recovery): irreversible epithelial damage
- cell viability after recovery (T=48 h) versus after treatment (T=0 h) ([4]; 0.5% SDS): significantly equivalent
- cell viability after recovery (T=48 h) versus after treatment (T=0 h) ([4]; 1%, 2% and 3% SDS): significantly lower cell viability
